This passage reports IC50 and inhibition results from ChEMBL document CHEMBL3603818, “Hedgehog inhibitors from Withania somnifera” (Bioorg Med Chem Lett, 2015).

Assay [1] in a line: Inhibition of hedgehog/GLI1-mediated transcriptional activity in human HaCaT cells after 12 hrs by luciferase assay. Format: cell-based.
A short description of assay [2]: Cytotoxicity against human PANC1 cells after 24 hrs by FMCA. Format: functional, cell-based. The following applies: PANC-1, 24 h.
A further assay relates to DU-145. Description: Cytotoxicity against human DU145 cells after 24 hrs by FMCA. Format: functional, cell-based. The following applies: DU-145, 24 h.
For a further assay, the system named is MCF7. Description: Cytotoxicity against human MCF7 cells after 24 hrs by FMCA. The following applies: MCF7, 24 h. Type of assay: functional, cell-based.
A short description of assay [3]: Cytotoxicity against mouse C3H10T1/2 cells after 24 hrs by FMCA. Type of assay: cell-based. Conditions: C3H 10T1/2, 24 h.
The test system of assay [4] is HaCaT. In words: Inhibition of PTCH expression in human HaCaT cells expressing GLI1 at 1.5 uM after 12 hrs by Western blotting. Format: functional, cell-based. (A western blot detects proteins with antibodies after separation by electrophoresis.)
Assay [5] deals with HaCaT. Description: Inhibition of BCL-2 expression in human HaCaT cells expressing GLI1 at 1.5 uM after 12 hrs by Western blotting. Type of assay: functional, cell-based.
For assay [6], the system named is PANC-1. Description: Inhibition of PTCH expression in human PANC1 cells at 5 uM after 12 hrs by Western blotting. Type of assay: functional, cell-based.
For assay [7], the system named is PANC-1. Description: Inhibition of BCL-2 expression in human PANC1 cells at 5 uM after 12 hrs by Western blotting. Format: functional, cell-based.
Assay [8] relates to PANC-1. In words: Inhibition of PTCH expression in human PANC1 cells at 1 uM after 12 hrs by Western blotting. Type of assay: functional, cell-based.
For assay [9], the system named is PANC-1. Description: Inhibition of BCL-2 expression in human PANC1 cells at 1 uM after 12 hrs by Western blotting. Format: functional, cell-based.
Assay [10] has as its target T1, Zinc finger protein GLI1 (Homo sapiens) (UniProt P08151).
T1 sequence (whole entry): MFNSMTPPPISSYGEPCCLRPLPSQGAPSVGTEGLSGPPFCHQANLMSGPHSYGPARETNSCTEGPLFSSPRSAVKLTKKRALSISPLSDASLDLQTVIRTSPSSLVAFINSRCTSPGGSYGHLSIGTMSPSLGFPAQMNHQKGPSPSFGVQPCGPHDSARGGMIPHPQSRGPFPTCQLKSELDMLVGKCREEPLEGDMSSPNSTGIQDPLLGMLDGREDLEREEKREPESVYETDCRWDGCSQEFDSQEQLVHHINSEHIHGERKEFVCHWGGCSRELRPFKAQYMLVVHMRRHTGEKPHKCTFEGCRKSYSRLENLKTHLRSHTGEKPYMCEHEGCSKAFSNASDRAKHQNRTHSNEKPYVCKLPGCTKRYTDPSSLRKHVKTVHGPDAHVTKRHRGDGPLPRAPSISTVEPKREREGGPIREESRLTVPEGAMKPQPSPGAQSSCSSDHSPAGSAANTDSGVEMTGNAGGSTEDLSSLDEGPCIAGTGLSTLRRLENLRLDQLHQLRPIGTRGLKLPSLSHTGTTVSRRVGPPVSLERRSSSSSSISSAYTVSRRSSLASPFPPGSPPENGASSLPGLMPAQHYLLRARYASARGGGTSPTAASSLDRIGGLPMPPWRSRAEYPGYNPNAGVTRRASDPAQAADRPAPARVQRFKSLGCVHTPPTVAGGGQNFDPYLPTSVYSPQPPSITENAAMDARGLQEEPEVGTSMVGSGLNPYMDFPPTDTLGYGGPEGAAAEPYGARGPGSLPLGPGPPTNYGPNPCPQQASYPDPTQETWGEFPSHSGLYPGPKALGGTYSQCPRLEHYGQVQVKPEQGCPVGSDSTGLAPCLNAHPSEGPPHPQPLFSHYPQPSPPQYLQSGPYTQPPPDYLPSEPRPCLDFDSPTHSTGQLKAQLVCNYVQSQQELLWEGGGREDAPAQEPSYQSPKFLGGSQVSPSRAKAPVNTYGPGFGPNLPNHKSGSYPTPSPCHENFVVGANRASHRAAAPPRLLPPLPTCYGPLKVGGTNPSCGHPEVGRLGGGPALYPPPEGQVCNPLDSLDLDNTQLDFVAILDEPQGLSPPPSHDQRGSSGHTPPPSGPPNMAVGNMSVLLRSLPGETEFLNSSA
Description: Inhibition of GST-GLI1 (unknown origin) interaction with DNA assessed as reduction of protein-DNA complex level at 100 uM after 20 mins by electrophoretic mobility shift assay. For orientation: A gel shift assay detects complexes by their altered migration in electrophoresis.

Each structure is given as a SMILES string. Activity calls are given as the source filed them. No cut-off for these calls is given here.

On to `CC1=C(CO)C(=O)O[C@@H]([C@@H](C)[C@H]2CC[C@H]3[C@@H]4C[C@H]5O[C@]56[C@@H](O)[C@@H](OS(=O)(=O)O)CC(=O)[C@]6(C)[C@H]4CC[C@]23C)C1`, for which the IC50 (in general, the concentration that gives 50% inhibition) in assay [1] was 2200 nM; in [2] it was 14.8 µM; in the assay on DU-145, 21.7 µM; in the assay on MCF7, 17.9 µM; in assay [3] it was 21 µM.

Turning to `CC1=C(CO)C(=O)O[C@@H]([C@@H](C)[C@H]2CC[C@H]3[C@@H]4CC=C5[C@@H](O)C=CC(=O)[C@]5(C)[C@H]4CC[C@]23C)C1`, the IC50 in assay [1] was 1800 nM; in assay [2] it was 11.9 µM; with DU-145, 10.6 µM; in the assay with MCF7, 22.6 µM; in assay [3], more than 25 µM.

For the molecule `CO[C@H]1CC(=O)[C@]2(C)[C@H]3CC[C@]4(C)[C@@H]([C@H](C)[C@H]5CC(C)=C(CO)C(=O)O5)CC[C@H]4[C@@H]3C[C@H]3O[C@]32[C@H]1O`, the IC50 in assay [1] was more than 25000 nM; in assay [2], more than 25 µM; in the assay with DU-145 it was more than 25 µM; with MCF7, more than 25 µM; in [3] it was more than 25 µM.

As for `CC1=C(C)C(=O)O[C@@H]([C@@H](C)[C@H]2CC[C@H]3[C@@H]4C[C@H]5O[C@]56[C@@H](O)C=CC(=O)[C@]6(C)[C@H]4CC[C@]23C)C1`, the IC50 in assay [1] came out at 600 nM; in assay [2], 1.1 µM; in the assay on DU-145, 1.8 µM; with MCF7, 2.8 µM; in [3] it was 4.1 µM. For the same molecule, the inhibition entry in the assay with HaCaT [4], with HaCaT [5], in the assay with PANC-1 [6] and with PANC-1 [7] was “Active” in each case.

`CC1=C(CO)C(=O)O[C@@H]([C@@H](C)[C@H]2CC[C@H]3[C@@H]4C[C@H]5O[C@]56[C@@H](O)C=CC(=O)[C@]6(C)[C@H]4CC[C@]23C)C1` [WITHAFERIN A]: the IC50 stood at 500 nM in assay [1]; 1.6 µM in assay [2]; 2.5 µM in the assay on DU-145; 6.3 µM with MCF7; 4.9 µM in [3]. Also, the inhibition entry (with HaCaT [4]; with HaCaT [5]; in the assay on PANC-1 [8]; with PANC-1 [9]; in assay [10]) was “Active” each time.

For `CC1=C(CO)C(=O)O[C@@H]([C@@H](C)[C@H]2CC[C@H]3[C@@H]4C[C@H]5O[C@]56[C@@H](O)CCC(=O)[C@]6(C)[C@H]4CC[C@]23C)C1`, the IC50 in [1] was 14800 nM; in [2], more than 25 µM; with DU-145, more than 25 µM; in the assay on MCF7, more than 25 µM; in assay [3], more than 25 µM. Besides, the inhibition entry in assay [10] was “Active”.
